Data published in patent US11078191B2, “1-(4-amino-5-bromo-6-(1H-pyrazol-1-yl)pyrimidin-2-yl)-1H-pyrazol-4-ol and use thereof in the treatment of cancer” (Novartis AG, priority 2017, dated 2021).
pKi: −log10 of the molar value. Where two headings read alike, the source gives them in different places. Marks after values point to notes of the source that are not given here.

Experiments:
[1] = male, Sprague Dawley, rat, microsomes
Procedure: (§1) The final organic content in liver microsomal incubations was 0.5%.
Liver microsomal protein (25 uL for 0.5 mg/mL; 15 uL for 0.3 mg/mL), NADPH (100 uL, 2 mM final concentration) and phosphate buffer (870 uL for 0.5 mg/mL; 880 uL for 0.3 mg/mL) were incubated in a microfuge tube in an orbital shaker incubator for 10 min maintained at 37° C. Reactions were initiated by spiking 5 uL of 2 mM and 0.2 mM 5-bromo-2,6-di(1H-pyrazol-1-yl)pyrimindin-4-amine([…]; […]; 0.5% final DMSO concentration) and samples incubated at 37° C. Aliquots (200 uL) were withdrawn from the reaction tube at 0, 60 and 120 minutes and the reaction was quenched by addition of 100 uL acetonitrile. Reactions were performed in duplicates. The quenched samples were centrifuged at 14000 rpm (approximately 21000 g) for 10 minutes(Eppendorf Centrifuge 5810 R) and supernatant was analyzed by LCMS/MS.
(§2) Control incubations (no NADPH added) and blank incubations (no test item added) were performed in singlet for each species. These samples were withdrawn at 0 and 120 min and quenched using acetonitrile. The supernatant was analyzed for any non microsomal degradation and matrix interference. […] Reaction and control experiments were performed in singlet.

[2] = Procedure: as §1
Liver microsomal protein (25 uL for 0.5 mg/mL; 15 uL for 0.3 mg/mL), NADPH (100 uL, 2 mM final concentration) and phosphate buffer (870 uL for 0.5 mg/mL; 880 uL for 0.3 mg/mL) were incubated in a microfuge tube in an orbital shaker incubator for 10 min maintained at 37° C. Reactions were initiated by spiking 5 uL of 2 mM and 0.2 mM 5-bromo-2,6-di(1H-pyrazol-1-yl)pyrimindin-4-amine(10 uM final concentrations for 0.5 mg/mL protein; 1 uM final concentration for 0.3 mg/mL protein; 0.5% final DMSO concentration) and samples incubated at 37° C. Aliquots (200 uL) were withdrawn from the reaction tube at 0, 60 and 120 minutes and the reaction was quenched by addition of 100 uL acetonitrile. Reactions were performed in duplicates. The quenched samples were centrifuged at 14000 rpm (approximately 21000 g) for 10 minutes(Eppendorf Centrifuge 5810 R) and supernatant was analyzed by LCMS/MS.
as §2

[3] = type: in vitro ADME; details: for Percentage area ratio with respect to parent (10 uM): 0 min
Procedure: • ACN: acetonitrile • CC: calibration curve • IS: internal standard • DMSO: dimethylsulfoxide • MRM: multiple reaction monitoring • […]: nicotinamide adenine dinucleotide phosphate (reduced) • Rpm: revolution per minute Liver Microsomes • Rat liver microsomes (male, pooled, Sprague Dawley) • Source: XenoTech, LLC (Kansas, USA) • Protein content: 20 mg/mL • Catalogue number: R I 000, Lot number: 0710623 • Dog liver microsomes (male, pooled, Beagle) • Source: XenoTech, LLC (Kansas, USA) • Protein content: 20 mg|mL • Catalogue number: D I 000, Lot number: 0810143 • Human liver microsomes (mixed gender, pooled) • Source: XenoTech, LLC (Kansas, USA) • Protein content: 20 mg|mL • Catalogue number: H061 0, Lot number: 101042 Stock Solutions and Reagents Test Item
(§3) Reactions were performed in duplicates.
(§4) Reaction and control experiments were performed in singlet.
Samples were processed using protein precipitation method and then analyzed by employing linear gradient with a run time of 28 min in HPLC coupled with tandem mass spectrometry (API 4000 mass spectrometer). Each sample was injected and scanned separately for Q1 (MH+/MH−) and MS/MS.
The different possible metabolite peaks were identified in Q1 scan after assessing for matrix interference using test item free blank samples, and were confirmed from the fragmentation pattern (MSIMS scan).
An alternate analytical method was also developed to increase the retention times and to assess other metabolites apart from the identified M-1 metabolite. Aqueous solutions of 1-(6-amino-5-bromo-2-(1H-pyrazol-1-yl)pyrimidin-4-yl)-1H-pyrazol-4-ol and 1-(4-amino-5-bromo-6-(1H-pyrazol-1-yl)pyrimidin-2-yl)-1H-pyrazol-4-ol (1 uM) were co-chromatographed with the in vitro incubated samples employing modified analytical method to confirm the identity.

[4] = target: T1, human adenosine A2A receptor (Homo sapiens, UniProt P29274); test: In vitro hA2A radioligand binding assay; details: [3H]-ZM241385 competition, HEK-293 membranes; Ki from IC50 by Cheng-Prusoff
T1 construct: purchased Perkin Elmer RBHA2AM400UA; host or cells: HEK-293 cells stably expressing the receptor (membrane preparation)
T1 sequence (P29274 whole entry): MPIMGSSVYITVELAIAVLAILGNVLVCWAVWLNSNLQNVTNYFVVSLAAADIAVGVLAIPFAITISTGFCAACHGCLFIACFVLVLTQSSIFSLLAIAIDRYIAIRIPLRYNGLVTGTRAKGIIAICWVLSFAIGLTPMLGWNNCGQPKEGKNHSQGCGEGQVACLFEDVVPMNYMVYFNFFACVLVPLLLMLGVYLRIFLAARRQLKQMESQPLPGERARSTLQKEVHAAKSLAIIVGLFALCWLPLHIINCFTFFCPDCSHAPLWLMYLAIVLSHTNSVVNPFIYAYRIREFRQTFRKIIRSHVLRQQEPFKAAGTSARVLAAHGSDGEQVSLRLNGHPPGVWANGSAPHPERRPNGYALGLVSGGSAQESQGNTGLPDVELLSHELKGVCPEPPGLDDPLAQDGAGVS

[5] = Liver microsomal incubations compared across tested species; type: in vitro ADME, rat, dog, human
Procedure: as §3, §4

[6] = Mass balance determination in human liver microsomes (MRM analysis); type: in vitro ADME
Procedure: as §3
An aliquot (25 uL) of these samples were further diluted with 100 uL of internal standard (Haloperidol, 1 ug|mL in acetonitrile).
The incubation samples were also prepared similar to that of the calibration standards by adding 25 uL of the quenched sample with 100 uL of internal standard.

[7] = human liver microsomes, parent 10 uM, 0 min, Set-1
[8] = human liver microsomes, parent 10 uM, 0 min, Set-2
[9] = human liver microsomes, parent 10 uM, 30 min, Set-1
[10] = human liver microsomes, parent 10 uM, 30 min, Set-2
[11] = human liver microsomes, parent 10 uM, 60 min, Set-1
[12] = human liver microsomes, parent 10 uM, 60 min, Set-2

O=C(O)Cc1ccccc1Nc1c(Cl)cccc1Cl [Diclofenac]
% remaining ([1]; 0 h, 0.5 uM): 100% | % remaining ([1]; 1 h, 0.5 uM): 12% | % remaining ([2]; both, human, microsomes, 0 h, 0.5 uM): 100% | % remaining ([2]; both, human, microsomes, 1 h, 0.5 uM): 100%

Nc1nc(-n2cc(O)cn2)nc(-n2cccn2)c1Br [Example 1, 1-(4-amino-5-bromo-6-(1H-pyrazol-1-yl)pyrimidin-2-yl)-1H-pyrazol-4-ol]
Percentage area ratio with respect to parent (10 uM) ([3]; male, Beagle, dog): 0.01% | pKi [4]: 7.30 | percentage of metabolite with respect to parent ([5]; rat, dog and human liver microsomes, assumes equal ionization efficiency): uniformly low | percentage of M-I metabolite in human liver microsomes ([6]; after 60 minutes of incubation with parent, % of the parent): 15-20% | % M-I detected [6, 7]: 0% | M-I Concentration [6, 7]: 0 µM | % M-I detected [6, 8]: 0% | M-I Concentration [6, 8]: 0 µM | % M-I detected [6, 9]: 10.95% | M-I Concentration [6, 9]: 1.29 µM | % M-I detected [6, 10]: 7.97% | M-I Concentration [6, 10]: 0.92 µM | % M-I detected [6, 11]: 18.93% | M-I Concentration [6, 11]: 2.23 µM | % M-I detected [6, 12]: 15.08% | M-I Concentration [6, 12]: 1.74 µM

Nc1nc(-n2cccn2)nc(-n2cccn2)c1Br [Parent, 5-bromo-2,6-di(1H-pyrazol-1-yl)pyrimindin-4-amine]
Percentage area ratio with respect to parent (10 uM) ([3]; both, human): 100% | Percentage area ratio with respect to parent (10 uM) ([3]; male, Beagle, dog): 100% | Percentage area ratio with respect to parent (10 uM) ([3]; male, Sprague Dawley, rat): 100% | % metabolism of parent at 120 min ([3]; male, Sprague Dawley, rat, 120 min, 10 uM): 0% | Concentration of Analyte metabolized ([3]; male, Sprague Dawley, rat, microsomes, 2 h, 10 uM): 0 nM | relative metabolism across tested species ([5]; 1 uM, 0.3 mg/mL microsomal protein, DLM, HLM, RLM = dog, human, rat liver microsomes): DLM>HLM>RLM | stability in control incubations (no NADPH added) ([5]; liver microsomes, indicating no non-CYP mediated metabolism): stable up to 120 min | % remaining ([1]; 0 h, 1 uM): 100% | % parent Remaining [6, 7]: 100% | Parent Concentration [6, 7]: 11.78^a uM | % parent Remaining [6, 9]: 96.26% | Mass balance [6, 9]: 107.22% | Parent Concentration [6, 9]: 11.34^a uM | % parent Remaining [6, 11]: 88% | Mass balance [6, 11]: 107.81% | Parent Concentration [6, 11]: 10.47^a uM | Parent Concentration ([6]; human, 0 min, 10 uM): 11.54^a uM | Mass balance ([6]; human, 30 min, 10 uM): 95.41% | Parent Concentration ([6]; human, 30 min, 10 uM): 10.09^a uM | Mass balance ([6]; human, 60 min, 10 uM): 94.63% | Parent Concentration ([6]; human, 60 min, 10 uM): 9.18 µM | % parent Remaining ([6]; human, microsomes, 0 h, 10 uM): 100% | % parent Remaining ([6]; human, microsomes, 0.5 h, 10 uM): 87.44% | % parent Remaining ([6]; human, microsomes, 1 h, 10 uM): 79.55% | mass balance for the metabolism in human liver microsomes ([6]; text summary of Table 7): 95 to 107% | % metabolism of parent at 120 min ([2]; both, human, 1 uM): 76% | % remaining ([2]; both, human, microsomes, 0 h, 1 uM): 100% | % metabolism of parent at 120 min ([2]; human, 1 uM): 78% | % metabolism of parent at 120 min ([2]; male, Beagle, dog, 1 uM): 83% | % remaining ([2]; male, Beagle, dog, microsomes, 0 h, 1 uM): 100% | Concentration of Analyte metabolized ([2]; male, Beagle, dog, microsomes, 2 h, 1 uM): 830 nM
